How the values were obtained:
[1] = test system: caterpillars of the armyworm (Spodoptera frugiperda); assay: Spodoptera frugiperda test (LC50, Carpenter); format: in vivo; settings: found, cabbage leaf dip
Description: (§1) Spodoptera frugiperda Test

[2] = test system: caterpillars of the diamondback moth (Plutella xylostella, resistant strain); assay: Plutella test, resistant strain (LC95, Carpenter); format: in vivo; settings: found
Description: Plutella Test, Resistant Strain

[3] = test system: larvae of the mustard beetle (Phaedon cochleariae); assay: Phaedon larvae test (LC50, Carpenter); settings: found, cabbage leaf dip
[4] = test system: caterpillars of the diamondback moth (Plutella xylostella, sensitive strain); assay: Plutella test, sensitive strain (LC95, Carpenter); format: in vivo; settings: found
Description: Plutella Test, Sensitive Strain

[5] = test system: larvae of the mustard beetle (Phaedon cochleariae); assay: Phaedon larvae test (kill rate, Colby); format: in vivo; settings: cabbage leaf dip
Method: (§2) The kill rates determined are calculated using Colby's formula (see sheet 1).

[6] = test system: Heliothis virescens caterpillars; assay: Heliothis virescens test (kill rate, Colby); format: in vivo; settings: soya bean shoot dip
Method: as §2

[7] = test system: caterpillars of the armyworm (Spodoptera frugiperda); assay: Spodoptera frugiperda test (kill rate, Colby); format: in vivo; settings: cabbage leaf dip
Method: as §1, §2

[8] = test system: normally sensitive caterpillars of the diamondback moth (Plutella xylostella); assay: Plutella test (normally sensitive) (kill rate, Colby); format: in vivo; settings: normally sensitive strain
Method: Plutella Test (Normally Sensitive)
as §2

[9] = test system: resistant caterpillars of the diamondback moth (Plutella xylostella); assay: Plutella test (resistant) (kill rate, Colby); format: in vivo; settings: resistant strain
Method: Plutella Test (Resistant)
as §2

CN/C(=N\[N+](=O)[O-])NCc1cnc(Cl)s1 [clothianidin (X), (E)-1-(2-chloro-1,3-thiazol-5-yl-methyl)-3-methyl-2-nitroguanidine]
LC50 after 6 days [1]: 0.662 ppm
LC95 after 6 days [2]: 50.722 ppm
LC50 after 6 days [3]: 2.372 ppm
LC95 after 6 days [4]: 26.037 ppm

O=[N+]([O-])/N=C1\NCCN1Cc1ccc(Cl)nc1 [imidacloprid, 1-[(6-chloro-3-pyridinyl)methyl]-N-nitro-2-imidazolidineimine]
Kill rate in % after 3 days ([5]; 3 ppm): 0%
Kill rate in % after 3 days ([6]; 3 ppm): 15%
Kill rate in % after 6 days ([7]; 0.6 ppm): 0%

COC(=O)N(C(=O)N1CO[C@@]2(C(=O)OC)Cc3cc(Cl)ccc3C2=N1)c1ccc(OC(F)(F)F)cc1 [indoxacarb]
Kill rate in % after 6 days ([8]; 0.1 ppm): 65%
Kill rate in % after 3 days ([5]; 0.5 ppm): 20%
Kill rate in % after 6 days ([5]; 0.5 ppm): 45%
LC50 after 6 days [1]: 0.136 ppm
LC95 after 6 days [2]: 0.234 ppm
LC50 after 6 days [3]: 0.1 ppm
Kill rate in % after 6 days ([9]; 0.1 ppm): 55%
LC95 after 6 days [4]: 0.531 ppm
Kill rate in % after 3 days ([6]; 0.1 ppm): 0%
Kill rate in % after 6 days ([7]; 0.02 ppm): 0%

N#C/N=C1\SCCN1Cc1ccc(Cl)nc1 [thiacloprid, (Z)-3-(6-chloro-3-pyridylmethyl)-1,3-thiazolidin-2-ylidenecyanamide]
Kill rate in % after 6 days ([8]; 3 ppm): 0%
Kill rate in % after 6 days ([5]; 3 ppm): 0%
Kill rate in % after 6 days ([9]; 3 ppm): 0%
